Results published in patent publication US7935687B2, “Methods for treating spinal muscular atrophy using tetracycline compounds” (Paratek Pharmaceuticals, Inc., priority 2007, dated 2011).
Where two headings read alike, the source gives them in different places.

Test system: SMN2 mRNA
Assay: In vitro cell-free splicing assay for inclusion of exon 7
Assay type: biochemical
Method: The following example illustrates how tetracycline compound of the invention are active in an in vitro cell-free assay for the inclusion of exon 7 in […] mRNA. SMN1 and SMN2 pre-mRNA were prepared by in vitro transcription using T7 RNA polymerase of minigene templates that include exon 6, a truncated portion of intron 6, exon 7, intron 7 and a portion of exon 8 in the presence of ^32P-UTP. Labeled RNA was purified on a denaturing polyacrylamide gel followed by phenol extraction and ethanol precipitation of the RNA.
In vitro cell-free splicing of SMN1 and SMN2 transcripts was carried out in a 10 μl reaction volume at 30° C. for 3 hours. The reactions contained 10 fmol of labeled pre-mRNA, 30% (3 VI) HeLa cell nuclear extract (in 20 mM HEPES, pH 7.4, 20% (v/v) glycerol, 0.1M KC1, 0.2 mM EDTA), 1.3% (w/v) polyvinyl alcohol, 1.56 mM MgCl2, 32 mM HEPES, pH 7.4, 0.5 mM ATP, 20 mM creatine phosphate and either 2 μl of test compound (in 20 mM HEPES, pH 7.4, 0.1M KC1, 0.2 mM EDTA) or buffer alone. Following incubation, 200 μl of a solution containing 0.3M NaAc and 0.2% SDS was added to the reaction. Proteins were removed by extraction with an equal volume of phenol and RNA was precipitated with 2.5 volumes of ethanol. RNA was resuspended in formamide sample buffer and separated on a 9% urea-denaturing polyacrylamide gel. Quantitation of splicing was based on phosphorimage analysis (Fujix BAS2000 or Fujifilm FLA-5100). In this assay, percentage exon 7 inclusion averages 12% for the unmutated SMN1 mRNA and 4% for the SMN2 mRNA.
The in vitro activities for exon 7 splicing are expressed as the Emax (the maximum percentage exon 7 inclusion observed) and Cmax (the lowest compound concentration at which the maximum inclusion occurs in μM). For Emax, percentage inclusion values of less than 10% are indicated by “*”, values of 10-20% are indicated by “**”, and values greater than 20% are indicated by “***”. For Cmax data, concentrations of greater than 40 μM are indicated by “*”, concentrations between 40 and 10 μM are represented by “**” and concentrations of less than 10 μM are represented by “***”.

[1] = HeLa cell nuclear extract, 30° C., 3 hours

Row | Structure (SMILES) | Cmax (lowest compound concentration at which the maximum exon 7 inclusion occurs) [1] | Emax (maximum percentage exon 7 inclusion observed) [1] | Cmax (lowest compound concentration at which the maximum exon 7 inclusion occurs) | Emax (maximum percentage exon 7 inclusion observed)
1 | CN(C)C1C(O)=C(C(N)=O)C(=O)C2(O)C(O)=C3C(=O)c4c(O)ccc(-c5cccc(C=CC#N)c5)c4CC3CC12 (centres unmarked) [CO] | ** (concentrations between 40 and 10 μM) | ** (values of 10-20%) | – | –
2 | CN(C)C1C(O)=C(C(N)=O)C(=O)C2(O)C(O)=C3C(=O)c4c(O)ccc(-c5cccc(C(=O)NCCN6CCOCC6)c5)c4CC3CC12 (centres unmarked) [CP] | ** (concentrations between 40 and 10 μM) | *** (values greater than 20%) | – | –
3 | COCCCNC(=O)c1cccc(-c2ccc(O)c3c2CC2CC4C(N(C)C)C(O)=C(C(N)=O)C(=O)C4(O)C(O)=C2C3=O)c1 (centres unmarked) [CQ] | * (concentrations of greater than 40 μM) | ** (values of 10-20%) | – | –
4 | CN(C)C1C(O)=C(C(N)=O)C(=O)C2(O)C(O)=C3C(=O)c4c(O)ccc(-c5cccc(C(=O)NCCN6CCCC6)c5)c4CC3CC12 (centres unmarked) [CR] | – | – | ** (key: *: concentrations of greater than 40 μM; **: concentrations between 40 and 10 μM; ***: concentrations of less than 10 μM) | *** (key: *: percentage inclusion values of less than 10%; **: values of 10-20%; ***: values greater than 20%)
5 | CN(C)CCNCc1cccc(-c2ccc(O)c3c2CC2CC4C(N(C)C)C(O)=C(C(N)=O)C(=O)C4(O)C(O)=C2C3=O)c1 (centres unmarked) [CS] | – | – | *** (key: *: concentrations of greater than 40 μM; **: concentrations between 40 and 10 μM; ***: concentrations of less than 10 μM) | ** (key: *: percentage inclusion values of less than 10%; **: values of 10-20%; ***: values greater than 20%)
6 | CN(C)CCN(C)Cc1cccc(-c2ccc(O)c3c2CC2CC4C(N(C)C)C(O)=C(C(N)=O)C(=O)C4(O)C(O)=C2C3=O)c1 (centres unmarked) [CT] | – | – | ** (concentrations between 40 and 10 μM) | ** (values of 10-20%)
7 | CN(C)CCCCNCc1cccc(-c2ccc(O)c3c2CC2CC4C(N(C)C)C(O)=C(C(N)=O)C(=O)C4(O)C(O)=C2C3=O)c1 (centres unmarked) [CV] | *** (concentrations of less than 10 μM) | ** (values of 10-20%) | – | –
8 | CN(C)CCCCN(C)Cc1cccc(-c2ccc(O)c3c2CC2CC4C(N(C)C)C(O)=C(C(N)=O)C(=O)C4(O)C(O)=C2C3=O)c1 (centres unmarked) [CW] | *** (concentrations of less than 10 μM) | ** (values of 10-20%) | – | –
9 | CN(C)CCCNCc1cccc(-c2ccc(O)c3c2CC2CC4C(N(C)C)C(O)=C(C(N)=O)C(=O)C4(O)C(O)=C2C3=O)c1 (centres unmarked) [CX] | – | – | *** (key: *: concentrations of greater than 40 μM; **: concentrations between 40 and 10 μM; ***: concentrations of less than 10 μM) | ** (key: *: percentage inclusion values of less than 10%; **: values of 10-20%; ***: values greater than 20%)
10 | CN(C)CCCN(C)Cc1cccc(-c2ccc(O)c3c2C[C@H]2C[C@H]4[C@H](N(C)C)C(O)=C(C(N)=O)C(=O)[C@@]4(O)C(O)=C2C3=O)c1 [Compound CU, (4S,4aS,5aR,12aS)-4-Dimethylamino-7-(3-{[(3-dimethylamino-propyl)-methyl-amino]-methyl}-phenyl)-3,10,12,12a-tetrahydroxy-1,11-dioxo-1,4,4a,5,5a,6,11,12a-octahydro-naphthacene-2-carboxylic Acid Amide] | *** (concentrations of less than 10 μM) | ** (values of 10-20%) | – | –
